# Target: T1, N-terminally GST-tagged human full length recombinant Mps-1 kinase (Homo sapiens, UniProt P33981)
# T1 construct: N-terminally GST-tagged human full length recombinant Mps-1 kinase; purchased Invitrogen, Karslruhe, Germany PV4071
# T1 sequence (P33981 1-857): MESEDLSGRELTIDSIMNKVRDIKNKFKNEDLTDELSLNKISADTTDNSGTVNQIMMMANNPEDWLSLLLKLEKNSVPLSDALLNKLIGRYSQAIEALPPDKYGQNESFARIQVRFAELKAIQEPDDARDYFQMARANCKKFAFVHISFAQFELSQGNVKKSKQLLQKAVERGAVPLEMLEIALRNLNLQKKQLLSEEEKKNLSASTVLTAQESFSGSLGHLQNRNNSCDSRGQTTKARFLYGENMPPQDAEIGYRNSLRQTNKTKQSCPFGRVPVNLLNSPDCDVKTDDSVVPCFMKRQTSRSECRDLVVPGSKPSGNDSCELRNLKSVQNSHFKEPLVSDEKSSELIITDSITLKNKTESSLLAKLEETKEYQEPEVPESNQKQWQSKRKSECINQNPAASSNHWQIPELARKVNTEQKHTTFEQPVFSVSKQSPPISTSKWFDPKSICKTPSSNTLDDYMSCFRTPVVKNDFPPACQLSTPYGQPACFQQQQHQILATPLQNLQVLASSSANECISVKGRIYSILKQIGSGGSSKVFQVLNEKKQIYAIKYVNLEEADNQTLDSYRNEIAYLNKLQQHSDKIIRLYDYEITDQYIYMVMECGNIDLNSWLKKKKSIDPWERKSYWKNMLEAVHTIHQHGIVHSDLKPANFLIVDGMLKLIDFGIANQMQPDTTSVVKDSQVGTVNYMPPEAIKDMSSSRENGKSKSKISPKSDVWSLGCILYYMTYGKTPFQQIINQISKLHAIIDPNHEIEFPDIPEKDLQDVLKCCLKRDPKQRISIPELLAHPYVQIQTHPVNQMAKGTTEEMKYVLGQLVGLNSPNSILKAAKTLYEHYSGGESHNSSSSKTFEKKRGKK
# Experiment: Mps-1 kinase assay (TR-FRET)
# Type: biochemical
# Conditions: Mps1 IC50 [nM], 10 μM ATP, 1 μM peptide substrate, 60 min at 22° C.
# Method in brief: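 Compounds were tested against recombinant full-length Mps-1 bearing an N-terminal GST tag, about 1 nM final, with a biotinylated amide-capped peptide as substrate. Detection reagents were then bound for 1 h at 22° C and the product read by TR-FRET.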
row,SMILES,IC50
1,"Cc1cc(Sc2cc(NCC(C)(C)O)c3ncc(-c4ccc(C(=O)NC5CC5)c(C)c4)n3n2)ccc1F [Example 65, N-cyclopropyl-4-{6-[(4-fluoro-3-methylphenyl)sulfanyl]-8-[(2-hydroxy-2-methylpropyl)amino]imidazo[1,2-b]pyridazin-3-yl}-2-methylbenzamide]",0.7 nM
2,"Cc1cc(C)cc(Oc2cc(NCC(C)(C)O)c3ncc(-c4ccc(C(=O)NC5CC5)c(C)c4)n3n2)c1 [Example 96, N-cyclopropyl-4-{6-(3,5-dimethylphenoxy)-8-[(2-hydroxy-2-methylpropyl)amino]imidazo[1,2-b]pyridazin-3-yl}-2-methylbenzamide]",0.8 nM
3,"CC(=O)Nc1cccc(-c2cc(NCC(C)C)c3ncc(-c4ccc(C(=O)NC5CC5)cc4)n3n2)c1 [Example 126, 4-{6-[3-(Acetylamino)phenyl]-8-[(2-methylpropyl)amino]imidazo[1,2-b]pyridazin-3-yl}-N-cyclopropylbenzamide]",2 nM
4,"C=Cc1cc(NCC(C)(C)O)c2ncc(-c3ccc(C(=O)NC4CC4)c(C)c3)n2n1 [Example 40, N-cyclopropyl-4-{8-[(2-hydroxy-2-methylpropyl)amino]-6-vinylimidazo[1,2-b]pyridazin-3-yl}-2-methylbenzamide]",111 nM
5,"COc1ccccc1Nc1cc(NCC(C)(C)O)c2ncc(-c3ccc(C(=O)NC4CC4)c(C)c3)n2n1 [Example 402, N-cyclopropyl-4-{8-[(2-hydroxy-2-methylpropyl)amino]-6-[(2-methoxyphenyl)amino]imidazo[1,2-b]pyridazin-3-yl}-2-methylbenzamide]",3.4 nM
6,"Cc1cc(-c2cnc3c(NCC(F)(F)F)cc(Oc4cccc(F)c4)nn23)ccc1C(=O)NC1CC1 [Example 514, N-cyclopropyl-4-{6-(3-fluoro-phenoxy)-8-[(2,2,2-trifluoroethyl)amino]imidazo[1,2-b]pyridazin-3-yl}-2-methylbenzamide]",8 nM
7,"Cc1ccc(Oc2cc(NCC(C)(C)O)c3ncc(-c4ccc(C(=O)NC5CC5)c(C)c4)n3n2)cn1 [Example 264, N-cyclopropyl-4-{8-[(2-hydroxy-2-methylpropyl)amino]-6-[(6-methylpyridin-3-yl)oxy]imidazo[1,2-b]pyridazin-3-yl}-2-methylbenzamide]",2 nM
8,"CSc1cc(NCCS(=O)(=O)N2CCOCC2)c2ncc(-c3ccc(C(=O)NC4CC4)c(C)c3)n2n1 [Example 231, N-cyclopropyl-2-methyl-4-[6-(methylsulfanyl)-8-{[2-(morpholin-4-ylsulfonyl)ethyl]amino}imidazo[1,2-b]pyridazin-3-yl]benzamide]",14.3 nM
9,"Cc1cc(-c2cnc3c(NCC(C)(C)O)cc(-c4cc(C(F)(F)F)nn4C)nn23)ccc1C(=O)NC1CC1 [Example 235, N-cyclopropyl-4-{8-[(2-hydroxy-2-methylpropyl)amino]-6-[1-methyl-3-(trifluoromethyl)-1H-pyrazol-5-yl]imidazo[1,2-b]pyridazin-3-yl}-2-methylbenzamide]",6.2 nM
10,"Cc1cc(-c2cnc3c(NCC4CCOCC4)cc(-c4ccccc4CO)nn23)ccc1C(=O)NC1CC1 [Example 346, N-cyclopropyl-4-{6-[2-(hydroxy-methyl)phenyl]-8-[(tetrahydro-2H-pyran-4-ylmethyl)amino]imidazo[1,2-b]pyridazin-3-yl}-2-methyl-benzamide]",1.6 nM
11,"CNC(=O)c1ccc(-c2cnc3c(NCC4CCOCC4)cc(Oc4ccccc4C)nn23)cc1C [Example 568, N,2-dimethyl-4-{6-(2-methylphenoxy)-8-[(tetrahydro-2H-pyran-4-ylmethyl)amino]imidazo[1,2-b]pyridazin-3-yl}benzamide]",< 1 nM
12,"COc1cccc(-c2cc(NCC(C)C)c3ncc(-c4ccc(C(=O)NC5CC5)cc4)n3n2)c1 [Example 125, N-cyclopropyl-4-{6-(3-methoxyphenyl)-8-[(2-methylpropyl)amino]imidazo[1,2-b]pyridazin-3-yl}benzamide]",3.8 nM
13,"CNC(=O)c1ccc(-c2cnc3c(NCCOC)cc(Oc4cccc(F)c4F)nn23)cc1C [Example 581, 4-{6-(2,3-difluoro-phenoxy)-8-[(2-methoxyethyl)a-mino]imidazo[1,2-b]pyridazin-3-yl}-N,2-dimethylbenzamide]",< 1 nM
14,"COc1c(Oc2cc(NCCC(F)(F)F)c3ncc(-c4ccc(C(=O)NC5CC5)c(C)c4)n3n2)cccc1C(C)C [Example 418, N-cyclopropyl-4-{6-[2-methoxy-3-(propan-2-yl)phenoxy]-8-[(3,3,3-trifluoropropyl)amino]imidazo[1,2-b]pyridazin-3-yl}-2-methylbenzamide]",1.2 nM
15,"Cc1cc(-c2cnc3c(NCC4CCSCC4)cc(Oc4ccc(Cl)cc4)nn23)ccc1C(=O)NC1CC1 [Example 292, 4-{6-(4-chlorophenoxy)-8-[(tetrahydro-2H-thiopyran-4-ylmethyl)amino]imidazo[1,2-b]pyridazin-3-yl}-N-cyclopropyl-2-methylbenzamide]",0.5 nM
16,"Cc1cc(-c2cnc3c(NCCC(F)(F)F)cc(Nc4ccncc4O)nn23)ccc1C(=O)NC1CC1 [Example 481, N-cyclopropyl-4-{6-[(3-hydroxypyridin-4-yl)amino]-8-[(3,3,3-tri-fluoropropyl)amino]imidazo[1,2-b]pyridazin-3-yl}-2-methylbenzamide]",3.1 nM

# More lines, now with the values ahead:
row,IC50,SMILES
1,0.3 nM,"Cc1cc(-c2cnc3c(NCCC(=O)N(C)C)cc(Oc4cccc(F)c4)nn23)ccc1C(=O)NC1CC1 [Example 493, N-cyclopropyl-4-[8-{[3-(dimethyl-amino)-3-oxopropyl]amino}-6-(3-fluorophenoxy)imidazo[1,2-b]pyridazin-3-yl]-2-methyl-benzamide]"
2,< 0.1 nM,"Cc1cc(-c2cnc3c(NCC4CC(=O)N(C)C4)cc(Oc4cccc(F)c4)nn23)ccc1C(=O)NC1CC1 (centres unmarked) [Example 329, N-cyclopropyl-4-[6-(3-fluorophenoxy)-8-{[(1-methyl-5-oxopyrrolidin-3-yl)methyl]amino}imidazo [1,2-b]pyridazin-3-yl]-2-methylbenzamide]"
3,0.1 nM,"Cc1cc(-c2cnc3c(NCC(O)CO)cc(Oc4cccc(F)c4)nn23)ccc1C(=O)NC1CC1 (centres unmarked) [Example 491, N-cyclopropyl-4-{8-[(2,3-dihydroxypropyl)amino]-6-(3-fluorophenoxy)imidazo [1,2-b]pyridazin-3-yl}-2-methylbenzamide]"
4,0.2 nM,"Cc1cc(-c2cnc3c(NCC(C)(C)N)cc(Oc4ccc(F)c(F)c4)nn23)ccc1C(=O)NC1CC1 [Example 520, 4-{8-[(2-amino-2-methylpropyl)amino]-6-(3,4-difluorophenoxy)imidazo[1,2-b]pyridazin-3-yl}-N-cyclopropyl-2-methylbenzamide]"
5,0.1 nM,"Cc1cc(-c2cnc3c(NCCC(F)(F)F)cc(Nc4ccccc4O)nn23)ccc1C(=O)NC1CC1 [Example 399, N-cyclopropyl-4-{6-[(2-hydroxyphenyl)amino]-8-[(3,3,3-trifluoropropyl)amino]imidazo[1,2-b]pyridazin-3-yl}-2-methylbenzamide]"
6,0.3 nM,"Cc1cc(-c2cnc3c(NCC(C)(C)N)cc(Oc4ccc(Cl)cc4)nn23)ccc1C(=O)NC1CC1 [Example 521, 4-{8-[(2-amino-2-methyl-propyl)amino]-6-(4-chloro-phenoxy)imidazo[1,2-b]pyridazin-3-yl}-N-cyclopropyl-2-methylbenzamide]"
7,0.2 nM,"Cc1cc(-c2cnc3c(NCCC(F)(F)F)cc(Sc4ccc(F)cc4N)nn23)ccc1C(=O)NC1CC1 [Example 417, 4-{6-[(2-amino-4-fluorophenyl)sulfanyl]-8-[(3,3,3-trifluoropropyl)amino]imidazo[1,2-b]pyridazin-3-yl}-N-cyclopropyl-2-methylbenzamide]"
8,0.2 nM,"COc1cccc(Nc2cc(NCCC(F)(F)F)c3ncc(-c4ccc(C(=O)NC5CC5)c(C)c4)n3n2)c1C [Example 426, N-cyclopropyl-4-{6-[(3-methoxy-2-methylphenyl)amino]-8-[(3,3,3-trifluoropropyl)amino]imidazo[1,2-b]pyridazin-3-yl}-2-methylbenzamide]"
9,0.1 nM,"COc1ccc(Cc2cc(NCCC(F)(F)F)c3ncc(-c4ccc(C(=O)NC5CC5)c(C)c4)n3n2)cc1F [Example 483, N-cyclopropyl-4-{6-(3-fluoro-4-methoxybenzyl)-8-[(3,3,3-tri-fluoropropyl)amino]imidazo [1,2-b]pyridazin-3-yl}-2-methylbenzamide]"
10,< 0.1 nM,"Cc1cc(-c2cnc3c(NCCC(F)(F)F)cc(Oc4cccnc4)nn23)ccc1C(=O)NC1CC1 [Example 174, N-cyclopropyl-2-methyl-4-{6-(pyridin-3-yloxy)-8-[(3,3,3-trifluoro-propyl)amino]imidazo[1,2-b]pyridazin-3-yl}benzamide]"
